Results on five compounds are retold here after article PMC11513923, “Discovery of ZLC491 as a Potent, Selective, and Orally Bioavailable CDK12/13 PROTAC Degrader” (Journal of Medicinal Chemistry, 2024).

For one data set, the target named is T1, CDK13 (Homo sapiens, UniProt Q14004).
T1 construct: Immunoblotting of CDK12 and CDK13 in MDA-MB-231 cells treated with increasing concentrations of ZLC491 for 15 h; endogenous in cells; host or cells: MDA-MB-231
In words: CDK13 degradation in MDA-MB-231 cells by immunoblotting.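 Also: percent of CDK13 protein degraded relative to DMSO control.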 It is filed as cell-based. The following applies: MDA-MB-231 cells, 0.3 μM, 15 h, immunoblotting, normalized against α-tubulin. In short, it runs like this: (§1)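 MDA-MB-231 cells treated with ZLC491 at increasing concentrations for 15 h (screening at 0.3 μM; time course at 1 μM); SDS lysates immunoblotted, band intensities normalised to α-tubulin. DC50 taken from percent remaining protein versus concentration; representative of three independent experiments.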
In general terms: In western blotting, separated proteins are transferred to a membrane and probed.

The target of another data set is CDK12 (Homo sapiens, UniProt Q9NYV4). In words: CDK12 degradation in MDA-MB-231 cells by immunoblotting. The format is cell-based. Further details: Immunoblotting of CDK12 and CDK13 in MDA-MB-231 cells treated with increasing concentrations of ZLC491 for 15 h; endogenous in cells; host or cells: MDA-MB-231. The following applies: MDA-MB-231 cells, 0.3 μM, 15 h, immunoblotting, normalized against α-tubulin. The method, boiled down:
as §1

On the set-up of data set [1]: method as in PMID 35938508. The following applies: rats; cited from earlier work.
On the set-up of data set [2]: method as in doi:10.1200/JCO.2020.38.15_suppl.3500, PMID 26200936. Conditions: cited from earlier work.
A further data set relates to MDA-MB-231 cells. In words: Drug combination assay with ZLC491. It is filed as cell-based, human. The procedure: (A) Transcription level of DDR genes in MDA-MB-231 cells determined by RT-qPCR upon the treatment with vehicle or ZLC491 at different doses for 12 h, ROR1 was used as a negative control; (B) immunoblotting of DDR proteins in MDA-MB-231 cells after the treatment of ZLC491 at different doses for 48 h; (C) cell antiproliferative activity of ZLC491 in multiple TNBC cells as well as several noncancerous cells. Cells were treated with the compound for 5 days; (D,E) antiproliferative potency of cisplatin or olaparib alone or combined with ZLC491 at different doses in MDA-MB-231 cells for 5 days. Data are plotted using the percentage of absorbance relative to DMSO controls. (F) IC50 values and combination index (CI) in drug combination assay. In this model, CI scores estimate the interaction between the two drugs. If CI < 1, the drugs have a synergistic effect and if CI > 1, the drugs have an antagonistic effect. CI = 1 means the drugs have an additive effect. ^aThe drug combination in the table refers to the starting concentration of the two combined drugs, that would both go through serial dilution when treating cells.
Tested cells were plated in 96-well or 384-well plates and incubated at 37 °C with or without 5% CO2. […] Cell proliferation was measured 5 days after compound treatment using Cell Counting Kit-8 (Selleck) according to the manufacturer’s instructions. […]

The subject of a further data set is CDK12/13. In words: Immunoblotting of CDK12/13 in MDA-MB-231 cells (time course, negative control, series comparison). The format is cell-based, human. The following applies: 1 μM, 10 h. The protocol:
To further characterize the compound, we determined the half-degradation concentration (DC50) values of ZLC491 in MDA-MB-231 cells. […] We also treated MDA-MB-231 cells with 1 μM ZLC491 at various time points.
(A) Immunoblotting of CDK12 and CDK13 in MDA-MB-231 cells treated with increasing concentrations of ZLC491 for 15 h (left). Percent remaining CDK12 and CDK13 proteins were plotted for DC50 determination (right). Protein levels were quantified using ImageJ and normalized to corresponding α-tubulin, then plotted using Graphpad Prism 8.0. The data were representative of three independent experiments; (B) immunoblotting of CDK12 and CDK13 proteins in MDA-MB-231 cells treated with ZLC491 for various time points; immunoblotting of CDK12 and CDK13 in HCC38 (C) and MDA-MB-436 (D) cells treated with increasing concentrations of ZLC491 for 15 h. α-Tubulin was used as a loading control. TEXT PRINTED IN THE PICTURE: (A) ZLC491: MDA-MB-231: CDK12 DC50 = 0.032μM; MDA-MB-231: CDK13 DC50 = 0.028μM DOUBTS OF THE COPYIST ABOUT THIS PICTURE: ZLC491, CDK12 DC50: 0.032 read from small print, the digits 3 and 2 are uncertain / ZLC491, CDK13 DC50: 0.028 read from small print, the last digit may be 8, 6 or 3
Figure 4 ZLC491 induced CDK12/13 degradation in a CRBN- and proteasome-dependent fashion. […]

The test system of data set [3] is TNBC cells and noncancerous cells. In words: Cell proliferation assay of the negative control in multiple TNBC and noncancerous cells. The format is cell-based, human. Conditions: multiple TNBC and noncancerous cell lines, 5 days. The protocol:
The antiproliferative effects of ZLC491 against TNBC cells were also evaluated. […] We thus investigated the synergistic effects of ZLC491 with DNA cross-linker cisplatin.
Tested cells were plated in 96-well or 384-well plates and incubated at 37 °C with or without 5% CO2. After overnight incubation, serial dilutions of compounds were added to the plate. Cell proliferation was measured 5 days after compound treatment using Cell Counting Kit-8 (Selleck) according to the manufacturer’s instructions.
Figure S3. Immunoblotting of CCNK in MDA-MB-231 cells treated with increasing concentrations of ZLC491 for 15 h.
Figure S4. Cell antiproliferative activity of ZLC491N in multiple TNBC cells as well as noncancerous cells. Cells were treated with the compound for 5 days. […]

“Also recorded” adds a separate entry of the source. Read-outs that look alike come from different tables or passages of the source.

T1 sequence (Q14004 whole entry): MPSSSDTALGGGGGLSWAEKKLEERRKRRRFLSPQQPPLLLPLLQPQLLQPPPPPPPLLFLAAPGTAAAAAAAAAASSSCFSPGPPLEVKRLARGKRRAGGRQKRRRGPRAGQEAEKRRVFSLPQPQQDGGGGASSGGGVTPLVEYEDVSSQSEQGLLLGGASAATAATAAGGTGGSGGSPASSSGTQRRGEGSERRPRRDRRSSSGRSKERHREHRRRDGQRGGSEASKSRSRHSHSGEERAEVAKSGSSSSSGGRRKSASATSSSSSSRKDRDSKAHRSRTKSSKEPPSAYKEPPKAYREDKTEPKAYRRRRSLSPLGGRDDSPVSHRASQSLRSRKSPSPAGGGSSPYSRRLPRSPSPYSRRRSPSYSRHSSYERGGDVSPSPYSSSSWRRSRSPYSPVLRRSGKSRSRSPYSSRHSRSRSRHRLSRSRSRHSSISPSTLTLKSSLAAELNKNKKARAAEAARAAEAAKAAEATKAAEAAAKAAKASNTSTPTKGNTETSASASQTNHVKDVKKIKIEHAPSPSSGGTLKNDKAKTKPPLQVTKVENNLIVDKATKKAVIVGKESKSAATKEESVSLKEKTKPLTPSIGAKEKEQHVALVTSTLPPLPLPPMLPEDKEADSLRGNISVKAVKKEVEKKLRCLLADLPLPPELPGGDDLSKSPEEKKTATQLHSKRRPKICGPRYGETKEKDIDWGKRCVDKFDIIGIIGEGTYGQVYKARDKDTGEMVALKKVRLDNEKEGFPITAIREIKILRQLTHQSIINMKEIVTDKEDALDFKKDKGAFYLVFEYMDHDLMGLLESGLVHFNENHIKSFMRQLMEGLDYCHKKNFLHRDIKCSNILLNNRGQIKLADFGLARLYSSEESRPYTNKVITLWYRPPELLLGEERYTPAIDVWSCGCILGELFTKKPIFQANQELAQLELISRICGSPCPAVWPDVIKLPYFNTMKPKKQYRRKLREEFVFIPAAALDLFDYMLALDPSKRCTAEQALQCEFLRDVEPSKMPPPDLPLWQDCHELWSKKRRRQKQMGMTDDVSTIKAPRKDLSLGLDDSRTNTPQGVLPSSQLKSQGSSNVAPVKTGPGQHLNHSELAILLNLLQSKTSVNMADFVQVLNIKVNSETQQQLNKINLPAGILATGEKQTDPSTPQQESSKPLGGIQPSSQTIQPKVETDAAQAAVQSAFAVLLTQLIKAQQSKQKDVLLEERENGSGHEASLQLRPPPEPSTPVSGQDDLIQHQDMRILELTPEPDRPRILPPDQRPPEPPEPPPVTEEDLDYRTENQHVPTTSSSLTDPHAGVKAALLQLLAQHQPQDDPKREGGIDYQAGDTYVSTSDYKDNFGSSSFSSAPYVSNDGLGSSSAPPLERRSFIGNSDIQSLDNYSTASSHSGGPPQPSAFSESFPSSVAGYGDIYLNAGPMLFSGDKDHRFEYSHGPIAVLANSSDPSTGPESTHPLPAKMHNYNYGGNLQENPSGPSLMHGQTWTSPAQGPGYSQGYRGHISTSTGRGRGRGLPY
T1 sequence (O75909 whole entry partner): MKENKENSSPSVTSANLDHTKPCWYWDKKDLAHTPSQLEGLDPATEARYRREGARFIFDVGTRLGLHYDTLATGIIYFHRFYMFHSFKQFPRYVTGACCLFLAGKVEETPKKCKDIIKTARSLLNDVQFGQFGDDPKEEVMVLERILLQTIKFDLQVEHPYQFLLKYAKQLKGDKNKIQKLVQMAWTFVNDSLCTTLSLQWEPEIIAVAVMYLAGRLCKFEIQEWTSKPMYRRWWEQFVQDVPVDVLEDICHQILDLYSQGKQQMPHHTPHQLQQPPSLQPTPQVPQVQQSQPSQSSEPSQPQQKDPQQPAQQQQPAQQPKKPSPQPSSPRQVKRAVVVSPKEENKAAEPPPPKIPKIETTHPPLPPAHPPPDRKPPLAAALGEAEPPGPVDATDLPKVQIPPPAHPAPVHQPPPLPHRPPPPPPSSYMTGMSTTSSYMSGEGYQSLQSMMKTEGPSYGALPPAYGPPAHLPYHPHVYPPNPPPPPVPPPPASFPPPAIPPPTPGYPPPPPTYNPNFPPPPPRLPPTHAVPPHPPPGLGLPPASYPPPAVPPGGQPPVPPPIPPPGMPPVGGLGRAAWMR
CDK12, sequence (Q9NYV4 whole entry): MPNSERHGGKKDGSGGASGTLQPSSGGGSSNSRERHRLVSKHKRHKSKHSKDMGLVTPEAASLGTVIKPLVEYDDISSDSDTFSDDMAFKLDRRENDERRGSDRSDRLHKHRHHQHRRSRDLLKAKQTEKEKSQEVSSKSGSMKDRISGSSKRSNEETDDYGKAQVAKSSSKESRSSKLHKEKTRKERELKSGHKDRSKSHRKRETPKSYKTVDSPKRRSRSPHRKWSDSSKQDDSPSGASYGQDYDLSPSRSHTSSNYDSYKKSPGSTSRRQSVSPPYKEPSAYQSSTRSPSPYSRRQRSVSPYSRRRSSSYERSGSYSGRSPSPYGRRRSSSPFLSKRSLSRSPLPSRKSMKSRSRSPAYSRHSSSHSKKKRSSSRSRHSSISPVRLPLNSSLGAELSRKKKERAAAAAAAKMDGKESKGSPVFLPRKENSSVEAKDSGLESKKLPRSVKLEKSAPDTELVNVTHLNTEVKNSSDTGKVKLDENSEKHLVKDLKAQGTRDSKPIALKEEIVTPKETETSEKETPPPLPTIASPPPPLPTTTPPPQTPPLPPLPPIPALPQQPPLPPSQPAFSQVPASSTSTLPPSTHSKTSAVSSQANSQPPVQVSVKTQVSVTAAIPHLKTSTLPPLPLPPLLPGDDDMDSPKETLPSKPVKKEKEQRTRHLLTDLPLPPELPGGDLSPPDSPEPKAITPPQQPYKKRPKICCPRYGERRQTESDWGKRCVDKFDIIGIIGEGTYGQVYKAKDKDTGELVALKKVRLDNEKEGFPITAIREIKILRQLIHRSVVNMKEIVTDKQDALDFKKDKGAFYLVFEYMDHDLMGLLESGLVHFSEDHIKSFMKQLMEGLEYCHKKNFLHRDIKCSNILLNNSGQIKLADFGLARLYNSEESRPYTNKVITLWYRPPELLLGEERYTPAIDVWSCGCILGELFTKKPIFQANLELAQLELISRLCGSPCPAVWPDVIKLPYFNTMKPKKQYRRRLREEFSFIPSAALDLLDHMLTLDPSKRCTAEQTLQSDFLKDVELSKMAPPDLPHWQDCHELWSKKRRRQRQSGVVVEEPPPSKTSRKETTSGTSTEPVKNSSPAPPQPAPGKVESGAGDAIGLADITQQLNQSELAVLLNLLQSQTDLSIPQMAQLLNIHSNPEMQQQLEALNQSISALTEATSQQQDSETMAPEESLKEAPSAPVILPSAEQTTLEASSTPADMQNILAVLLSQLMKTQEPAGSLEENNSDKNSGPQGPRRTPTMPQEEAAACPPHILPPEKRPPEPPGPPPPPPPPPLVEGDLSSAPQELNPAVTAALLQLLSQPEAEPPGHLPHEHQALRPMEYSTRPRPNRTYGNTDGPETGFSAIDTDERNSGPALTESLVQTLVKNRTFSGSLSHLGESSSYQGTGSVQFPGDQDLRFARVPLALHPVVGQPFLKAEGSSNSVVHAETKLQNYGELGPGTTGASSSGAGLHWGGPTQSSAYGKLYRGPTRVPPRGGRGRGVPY
CDK12, sequence (O75909 whole entry partner): as the sequence (O75909 whole entry partner) above

Take `N#Cc1ccc(N[C@H]2CC[C@H](N(C(=O)NCc3ccccc3)c3ccc(N4CCN(C(=O)CNc5ccc6c(c5)C(=O)N(C5CCC(=O)NC5=O)C6=O)CC4)cc3)CC2)nc1` (stereo partly drawn) [compound 3]: the “Protein Degradation (%DMSO control, 0.3 μM) CDK13” value on CDK13 was 84%. In addition, the “Protein Degradation (%DMSO control, 0.3 μM) CDK12” value at CDK12 came to 75%. Besides, in data set [1], the clearance entry is listed as “high” and the oral bioavailability result is recorded as “not orally bioavailable; also recorded: nondetectable”. As for `N#Cc1ccc(O[C@H]2CC[C@H](NC(=O)c3ccc(N4CCC(CN5CCN(c6cc7c(cc6F)C(=O)N(C6CCC(=O)NC6=O)C7=O)CC5)CC4)nn3)CC2)cc1Cl` (stereo partly drawn) [ARV-110], the oral bioavailability entry in data set [2] was “good oral bioavailability”. `N.N.[Cl][Pt][Cl]` [Cisplatin, cisplatin]: the “interaction with ZLC491 in dose–response assays” value in the data set on MDA-MB-231 cells (MDA-MB-231 cells, 5 days) is “potent synergy”. As to `O=C(c1cc(Cc2n[nH]c(=O)c3ccccc23)ccc1F)N1CCN(C(=O)C2CC2)CC1` [Olaparib, olaparib], the IC50 (as a rule, the concentration at which inhibition is half-maximal) with MDA-MB-231 cells (Homo sapiens, 120 h, drug A alone, starting concentration 25 μM, MDA-MB-231, 5 days, read-out: IC50 (μM), Drug A: ZLC491 25μM: 0μM) is 7.24 µM. Turning to `CN1C(=O)CCC(N2C(=O)c3cc(F)c(N4CCC(N5CCN(c6ccc(N(C(=O)NCc7ccccc7)[C@H]7CC[C@H](Nc8ccc(C#N)cn8)CC7)cc6)CC5)CC4)cc3C2=O)C1=O` (stereo partly drawn) [ZLC491N, 3-Benzyl-1-((1r,4r)-4-((5-cyanopyridin-2-yl)amino)cyclohexyl)-1-(4-(4-(1-(6-fluoro-2-(1-methyl-2,6-dioxopiperidin-3-yl)-1,3-dioxoisoindolin-5-yl)piperidin-4-yl)piperazin-1-yl)phenyl)urea], in the data set with CDK12/13, the “degradative effect on CDK12/13” value is recorded as “no degradative effect”. The antiproliferative effects result in data set [3] is “no antiproliferative effects”.
